This passage reports IC50 and ED30 results from ChEMBL document CHEMBL1150518, “Balanced angiotensin II receptor antagonists. III. The effects of substitution at the imidazole 5-position” (Bioorg Med Chem Lett, 1994).

As a reminder, the IC50 is the concentration needed to halve the response being measured. Low readings indicate higher potency, high ones lower potency.

Assay [1] addresses T1, Type-2 angiotensin II receptor (Homo sapiens, UniProt P50052).
T1 sequence (P50052 whole entry): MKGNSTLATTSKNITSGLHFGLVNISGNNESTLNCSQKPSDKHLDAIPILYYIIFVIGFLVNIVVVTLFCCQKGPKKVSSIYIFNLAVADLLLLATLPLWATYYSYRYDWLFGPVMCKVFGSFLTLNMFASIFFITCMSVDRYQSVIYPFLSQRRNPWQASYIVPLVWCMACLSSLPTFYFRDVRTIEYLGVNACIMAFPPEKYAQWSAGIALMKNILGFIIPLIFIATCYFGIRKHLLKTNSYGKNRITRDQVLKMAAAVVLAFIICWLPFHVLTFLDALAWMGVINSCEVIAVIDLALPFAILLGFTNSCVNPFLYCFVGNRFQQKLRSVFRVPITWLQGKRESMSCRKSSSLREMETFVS
Briefly: Binding affinity for angiotensin II AT-2 receptor.

Assay [2] relates to Rattus norvegicus. Briefly: Antihypertensive activity of compound was measured in renal hypertensive rat after oral administration. It counts as functional.
The target of assay [3] is T2, Type-1 angiotensin II receptor (Homo sapiens, UniProt P30556).
T2 sequence (P30556 whole entry): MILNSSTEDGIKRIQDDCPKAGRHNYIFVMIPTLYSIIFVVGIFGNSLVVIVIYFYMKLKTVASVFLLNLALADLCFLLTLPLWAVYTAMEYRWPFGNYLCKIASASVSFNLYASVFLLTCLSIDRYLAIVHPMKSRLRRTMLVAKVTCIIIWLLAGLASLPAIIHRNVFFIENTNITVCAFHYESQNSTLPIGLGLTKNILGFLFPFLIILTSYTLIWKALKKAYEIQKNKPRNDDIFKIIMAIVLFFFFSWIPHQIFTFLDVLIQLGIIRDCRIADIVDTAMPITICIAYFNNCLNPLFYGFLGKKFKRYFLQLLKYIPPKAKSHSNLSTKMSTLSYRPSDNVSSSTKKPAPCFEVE
Kind of assay: Binding affinity for Angiotensin II receptor, type 1.

Assay [4] deals with Rattus norvegicus. Kind of assay: Antihypertensive activity of compound was measured in renal hypertensive rat after iv administration. In kind it is functional.

In the case of `CCCc1nc(CC)c(C(=O)O)n1Cc1ccc(-c2ccccc2-c2nnn[nH]2)cc1`, the IC50 in assay [1] is over 1000 nM; in assay [3], 6 nM. Also, the ED30 was 0.03 mg/kg in assay [2] and 0.005 mg/kg in assay [4].

Turning to `CCCc1nc(CC)c(C(=O)OCc2ccccc2-c2ccccn2)n1Cc1ccc(-c2ccccc2S(=O)(=O)NC(=O)OCCC(C)C)cc1F`, the IC50 in assay [1] is 3 nM; in assay [3] it was 0.3 nM.

`CCCc1nc(CC)c(C(=O)OCc2ccccc2Sc2ccccc2)n1Cc1ccc(-c2ccccc2S(=O)(=O)NC(=O)OCCC(C)C)cc1F`: the IC50 in assay [1] turned out to be 2 nM; in assay [3] it was 1 nM.

`CCCCCCCOC(=O)NS(=O)(=O)c1ccccc1-c1ccc(Cn2c(CCC)nc(CC)c2C(=O)OCc2ccccc2OC)c(F)c1`: the IC50 in assay [1] was 10 nM; in assay [3] it was 1 nM.

`CCCc1nc(CC)c(C(=O)OCCN2C(=O)c3ccccc3C2=O)n1Cc1ccc(-c2ccccc2S(=O)(=O)NC(=O)OCCC(C)C)cc1F`: the values for the IC50 in assay [1] and in assay [3] were 7 nM and 0.2 nM, respectively.

`CCCc1nc(CC)c(C(=O)OCc2ccccc2S(=O)(=O)c2ccccc2)n1Cc1ccc(-c2ccccc2S(=O)(=O)NC(=O)OCCC(C)C)cc1F`: the half-maximal inhibitory concentration (IC50) in assay [1] amounted to 5 nM; in assay [3], 0.4 nM.

With `CCCc1nc(CC)c(C(=O)OCCCOc2ccccc2)n1Cc1ccc(-c2ccccc2S(=O)(=O)NC(=O)OCCC(C)C)cc1F`, the IC50 in assay [1] turned out to be 2 nM; in assay [3] it was 0.1 nM.

As to `CCCc1nc(CC)c(C(=O)OCCCC(=O)c2ccccc2)n1Cc1ccc(-c2ccccc2S(=O)(=O)NC(=O)OCCC(C)C)cc1F`, the concentration for half-maximal inhibition (IC50) in assay [1] is 5 nM; in assay [3], 0.1 nM.

Regarding `CCCc1nc(CC)c(C(=O)OCCCOCc2ccccc2)n1Cc1ccc(-c2ccccc2S(=O)(=O)NC(=O)OCCC(C)C)cc1F`, the 50% inhibitory concentration (IC50) in assay [1] is 2 nM; in assay [3], 0.1 nM.

As to `CCCOC(=O)NS(=O)(=O)c1ccccc1-c1ccc(Cn2c(CCC)nc(CC)c2C(=O)OCc2ccccc2C(=O)c2ccccc2)c(F)c1`, the IC50 in assay [1] is 1.6 nM; in assay [3], 0.28 nM. In addition, the values for the ED30 in assay [2] and in assay [4] were 0.7 mg/kg and 0.08 mg/kg, respectively.

Regarding `CCCc1nc(CC)c(C(=O)OCc2ccccc2C(=O)Nc2ccccc2)n1Cc1ccc(-c2ccccc2S(=O)(=O)NC(=O)OCCC(C)C)cc1F`, the figures for the 50% inhibitory concentration (IC50) in assay [1] and in assay [3] were 1 nM and 0.3 nM, respectively.

In the case of `CCCCOC(=O)NS(=O)(=O)c1ccccc1-c1ccc(Cn2c(CCC)nc(CC)c2C(=O)OCc2ccccc2C(=O)c2ccccc2)c(F)c1`, the half-maximal inhibitory concentration (IC50) turned out to be 0.9 nM in assay [1] and 0.2 nM in assay [3].

As to `CCCc1nc(CC)c(C(=O)OCCCSc2ccccc2)n1Cc1ccc(-c2ccccc2S(=O)(=O)NC(=O)OCCC(C)C)cc1F`, the 50% inhibitory concentration (IC50) in assay [1] turned out to be 2 nM; in assay [3] it was 0.2 nM.

For the compound `CCCc1nc(CC)c(C(=O)OCc2ccccc2[S+]([O-])c2ccccc2)n1Cc1ccc(-c2ccccc2S(=O)(=O)NC(=O)OCCC(C)C)cc1F` (stereo not drawn), the IC50 is 2 nM in assay [1] and 0.2 nM in assay [3].

As to `CCCc1nc(CC)c(C(=O)OCc2ccccc2-c2cccs2)n1Cc1ccc(-c2ccccc2S(=O)(=O)NC(=O)OCCC(C)C)cc1F`, the concentration for half-maximal inhibition (IC50) in assay [1] was 3 nM; in assay [3], 0.8 nM.

For `CCCc1nc(CC)c(C(=O)OCc2ccccc2C(=O)c2ccccc2)n1Cc1ccc(-c2ccccc2S(=O)(=O)NC(=O)OCCC(C)C)cc1F`, the IC50 in assay [1] was 0.7 nM; in assay [3] it was 0.5 nM. In addition, the ED30 in assay [2] was 0.9 mg/kg; in assay [4] it was 0.05 mg/kg.
